Biological target: ROCK2 (Homo sapiens (Human), UniProt O75116)
Test: ROCK assay (peptide substrate phosphorylation, LABCHIP 3000 Reader)
Type: biochemical
Settings: 5 μM ATP, 1.5 μM peptide substrate
Description: Compounds were dissolved in DMSO so that the final concentration of DMSO was <2%, and the reaction was initiated with Rho kinase variants. After incubation, the reaction was terminated by the addition of EDTA and the phosphorylated and non-phosphorylated peptides separated using a LABCHIP® 3000 Reader (Caliper Life Sciences). […] Compounds were tested in dose-response format, and the inhibition of kinase activity was calculated at each concentration of compound.

ROCK2, sequence (O75116 whole entry, species assumed): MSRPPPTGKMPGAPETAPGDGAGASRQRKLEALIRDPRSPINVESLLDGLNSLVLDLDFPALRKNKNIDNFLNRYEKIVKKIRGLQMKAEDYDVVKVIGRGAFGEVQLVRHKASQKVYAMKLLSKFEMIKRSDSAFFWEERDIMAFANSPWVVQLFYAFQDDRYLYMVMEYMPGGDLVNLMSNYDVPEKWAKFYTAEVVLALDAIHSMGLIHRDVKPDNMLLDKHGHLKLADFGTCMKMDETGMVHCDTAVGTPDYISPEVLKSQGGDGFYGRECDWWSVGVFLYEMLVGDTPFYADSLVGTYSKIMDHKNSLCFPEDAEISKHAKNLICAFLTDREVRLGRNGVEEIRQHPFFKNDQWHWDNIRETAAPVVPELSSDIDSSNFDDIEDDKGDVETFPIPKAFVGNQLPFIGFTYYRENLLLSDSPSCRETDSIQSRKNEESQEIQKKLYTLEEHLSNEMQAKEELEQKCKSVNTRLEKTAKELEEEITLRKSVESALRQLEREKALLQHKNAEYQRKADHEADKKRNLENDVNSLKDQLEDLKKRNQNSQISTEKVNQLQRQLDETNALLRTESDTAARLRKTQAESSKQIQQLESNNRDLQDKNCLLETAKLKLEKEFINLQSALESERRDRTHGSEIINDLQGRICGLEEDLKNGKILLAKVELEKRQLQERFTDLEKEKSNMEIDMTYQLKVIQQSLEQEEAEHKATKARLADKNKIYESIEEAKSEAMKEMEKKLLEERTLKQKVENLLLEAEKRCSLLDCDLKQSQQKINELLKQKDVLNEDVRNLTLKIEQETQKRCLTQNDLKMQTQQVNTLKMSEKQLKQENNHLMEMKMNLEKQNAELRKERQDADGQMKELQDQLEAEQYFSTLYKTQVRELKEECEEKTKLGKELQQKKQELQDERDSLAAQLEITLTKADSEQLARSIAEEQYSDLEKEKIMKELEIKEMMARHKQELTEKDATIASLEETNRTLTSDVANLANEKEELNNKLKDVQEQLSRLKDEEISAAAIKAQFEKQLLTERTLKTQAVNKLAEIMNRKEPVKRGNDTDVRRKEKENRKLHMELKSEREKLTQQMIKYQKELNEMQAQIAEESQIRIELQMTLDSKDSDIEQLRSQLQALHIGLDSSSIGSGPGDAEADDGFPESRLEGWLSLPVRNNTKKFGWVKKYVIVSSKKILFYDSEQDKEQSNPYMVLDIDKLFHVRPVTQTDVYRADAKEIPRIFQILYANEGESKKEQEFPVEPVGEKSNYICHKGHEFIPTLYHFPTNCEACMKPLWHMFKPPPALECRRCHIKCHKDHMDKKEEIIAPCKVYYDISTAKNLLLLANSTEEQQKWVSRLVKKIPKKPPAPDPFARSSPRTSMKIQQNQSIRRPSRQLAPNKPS

Row | Structure (SMILES) | IC50 [nM]
1 | COc1cc(C(=O)N2CC(O)C[C@@H]2c2cccc(C(=O)NC3CC3)c2)ccc1-c1cn[nH]c1 (stereo partly drawn) [Example 48, N-cyclopropyl-3-[(2R)-4-hydroxy-1-[3-methoxy-4-(1H-pyrazol-4-yl)benzoyl]pyrrolidin-2-yl]benzamide] | 5.32
2 | CCN1CCC[C@H]1CNC(=O)c1cccc([C@H]2CC(O)CN2C(=O)c2ccc(-c3cn[nH]c3)c(OC)c2)c1 (stereo partly drawn) [Example 49, N-{[(2S)-1-ethylpyrrolidin-2-yl]methyl}-3-[(2R)-4-hydroxy-1-[3-methoxy-4-(1H-pyrazol-4-yl)benzoyl]pyrrolidin-2-yl]benzamide] | 43.4
3 | COCCNC(=O)c1cccc([C@H]2CC(O)CN2C(=O)c2ccc(-c3cn[nH]c3)c(OC)c2)c1 (stereo partly drawn) [Example 50, 3-[(2R)-4-hydroxy-1-[3-methoxy-4-(1H-pyrazol-4-yl)benzoyl]pyrrolidin-2-yl]-N-(2-methoxyethyl) benzamide] | 5.1
4 | COc1cc(C(=O)N2CC(O)C[C@@H]2c2cccc(C(=O)NCC3CC3)c2)ccc1-c1cn[nH]c1 (stereo partly drawn) [Example 51, N-(cyclopropylmethyl)-3-[(2R)-4-hydroxy-1-[3-methoxy-4-(1H-pyrazol-4-yl)benzoyl]pyrrolidin-2-yl]benzamide] | 2.71
5 | COc1cc(C(=O)N2CC(O)C[C@@H]2c2cccc(C(=O)NC(C)C)c2)ccc1-c1cn[nH]c1 (stereo partly drawn) [Example 52, 3-[(2R)-4-hydroxy-1-[3-methoxy-4-(1H-pyrazol-4-yl)benzoyl]pyrrolidin-2-yl]-N-(propan-2-yl)benzamide] | 6.68
6 | COc1cc(C(=O)N2CC(O)C[C@@H]2c2cccc(C(=O)NC3CCC3)c2)ccc1-c1cn[nH]c1 (stereo partly drawn) [Example 54, N-cyclobutyl-3-[(2R)-4-hydroxy-1-[3-methoxy-4-(1H-pyrazol-4-yl)benzoyl]pyrrolidin-2-yl]benzamide] | 5.09
7 | COc1cc(C(=O)N2CC(O)C[C@@H]2c2cccc(C(=O)NCc3ncco3)c2)ccc1-c1cn[nH]c1 (stereo partly drawn) [Example 55, 3-[(2R)-4-hydroxy-1-[3-methoxy-4-(1H-pyrazol-4-yl)benzoyl]pyrrolidin-2-yl]-N-(1,3-oxazol-2-ylmethyl)benzamide] | 2.5
8 | COc1cc(C(=O)N2CC(O)C[C@@H]2c2cccc(C(=O)NC3CCOCC3)c2)ccc1-c1cn[nH]c1 (stereo partly drawn) [Example 56, 3-[(2R)-4-hydroxy-1-[3-methoxy-4-(1H-pyrazol-4-yl)benzoyl]pyrrolidin-2-yl]-N-(oxan-4-yl)benzamide] | 7.17
9 | COc1cc(C(=O)N2CC(O)C[C@@H]2c2cccc(C(=O)NC3(C)CC3)c2)ccc1-c1cn[nH]c1 (stereo partly drawn) [Example 57, 3-[(2R)-4-hydroxy-1-[3-methoxy-4-(1H-pyrazol-4-yl)benzoyl]pyrrolidin-2-yl]-N-(1-methylcyclopropyl) benzamide] | 43.4
10 | COc1cc(C(=O)N2CC(O)C[C@@H]2c2cccc(C(=O)NCc3cc(C)no3)c2)ccc1-c1cn[nH]c1 (stereo partly drawn) [Example 58, 3-[(2R)-4-hydroxy-1-[3-methoxy-4-(1H-pyrazol-4-yl)benzoyl]pyrrolidin-2-yl]-N-[(3-methyl-1,2-oxazol-5-yl)methyl] benzamide] | 5.32
11 | COc1cc(C(=O)N2CC(O)C[C@@H]2c2cccc(C(=O)NCc3cc(C)on3)c2)ccc1-c1cn[nH]c1 (stereo partly drawn) [Example 59, 3-[(2R)-4-hydroxy-1-[3-methoxy-4-(1H-pyrazol-4-yl)benzoyl]pyrrolidin-2-yl]-N-[(5-methyl-1,2-oxazol-3-yl)methyl] benzamide] | 1.8
12 | COc1cc(C(=O)N2CC(O)C[C@@H]2c2cccc(C(=O)NCC(F)F)c2)ccc1-c1cn[nH]c1 (stereo partly drawn) [Example 60, N-(2,2-difluoroethyl)-3-[(2R)-4-hydroxy-1-[3-methoxy-4-(1H-pyrazol-4-yl)benzoyl]pyrrolidin-2-yl]benzamide] | 4.08
13 | COc1cc(C(=O)N2CC(O)C[C@@H]2c2cccc(C(=O)N3CC(C#N)C3)c2)ccc1-c1cn[nH]c1 (stereo partly drawn) [Example 61, 1-{3-[(2R)-4-hydroxy-1-[3-methoxy-4-(1H-pyrazol-4-yl)benzoyl]pyrrolidin-2-yl]benzoyl} azetidin-3-carbonitrile] | 102
14 | COc1cc(C(=O)N2CC(O)C[C@@H]2c2cccc(C(=O)N3CC(OC)C3)c2)ccc1-c1cn[nH]c1 (stereo partly drawn) [Example 62, (5R)-1-[3-methoxy-4-(1H-pyrazol-4-yl)benzoyl]-5-[3-(3-methoxyazetidine-1-carbonly)phenyl] pyrrolidin-3-ol] | 316
15 | COc1cc(C(=O)N2CC(O)C[C@@H]2c2cccc(C(=O)NCc3ccc(C(F)(F)F)cc3F)c2)ccc1-c1cn[nH]c1 (stereo partly drawn) [Example 63, N-{[2-fluoro-4-(trifluoromethyl)phenyl]methyl}-3-[(2R)-4-hydroxy-1-[3-methoxy-4-(1H-pyrazol-4-yl)benzoyl]pyrrolidin-2-yl]benzamide] | 5.25
16 | COc1cc(C(=O)N2CC(O)C[C@@H]2c2cccc(C(=O)N3CC(F)C3)c2)ccc1-c1cn[nH]c1 (stereo partly drawn) [Example 64, (5R)-5-[3-(3-fluoroazetidine-1-carbonyl)phenyl]-1-[3-methoxy-4-(1H-pyrazol-4-yl)benzoyl]pyrrolidin-3-ol] | 204
17 | COc1cc(C(=O)N2CC(O)C[C@@H]2c2cccc(C(=O)N3CC(F)(F)C3)c2)ccc1-c1cn[nH]c1 (stereo partly drawn) [Example 65, (5R)-5-[3-(3,3-difluoroazetidine-1-carbonyl)phenyl]-1-[3-methoxy-4-(1H-pyrazol-4-yl)benzoyl]pyrrolidin-3-ol] | 91.4
18 | COc1cc(C(=O)N2CC(O)C[C@@H]2c2cccc(C(=O)NCc3cc(F)cc(C(F)(F)F)c3)c2)ccc1-c1cn[nH]c1 (stereo partly drawn) [Example 66, N-{[3-fluoro-5-(trifluoromethyl)phenyl]methyl}-3-[(2R)-4-hydroxy-1-[3-methoxy-4-(1H-pyrazol-4-yl)benzoyl]pyrrolidin-2-yl]benzamide] | 4.35
19 | COc1cc(C(=O)N2CC(O)C[C@@H]2c2cccc(C(=O)N3CCC3)c2)ccc1-c1cn[nH]c1 (stereo partly drawn) [Example 67, (5R)-5-[3-(azetidine-1-carbonyl)phenyl]-1-[3-methoxy-4-(1H-pyrazol-4-yl)benzoyl]pyrrolidin-3-ol] | 293
20 | COc1cc(C(=O)N2CCNCC2c2ccccc2)ccc1-c1cn[nH]c1 (stereo not drawn) [Example 68, 1-[3-Methoxy-4-(1H-pyrazol-4-yl)benzoyl]-2-phenylpiperazine] | 60.2
21 | COc1cc(C(=O)N[C@@H]2CNC[C@H]2c2ccccc2)ccc1-c1cn[nH]c1 [Example 69, 3-Methoxy-N-[(3S,4R)-4-phenylpyrrolidin-3-yl]-4-(1H-pyrazol-4-yl)benzamide] | 3.59
22 | COc1cc(C(=O)N2CCCC2c2cccc(-c3cn[nH]c3)c2)ccc1-c1cn[nH]c1 (stereo not drawn) [Example 71, 4-(2-Methoxy-4-{2-[3-(1H-pyrazol-4-yl)phenyl]pyrrolidine-1-carbonyl}phenyl)-1H-pyrazole] | 54.9
23 | COc1cc(-c2cn[nH]c2)ccc1C(=O)N1CCCC1c1cccc(-c2cn[nH]c2)c1 (stereo not drawn) [Example 72, 4-(3-methoxy-4-{2-[3-(1H-pyrazol-4-yl)phenyl]pyrrolidine-1-carbonyl}phenyl)-1H-pyrazole] | 1600
24 | COc1cc(C(=O)N2CCCC2c2cccc(-c3ccnn3C)c2)ccc1-c1cn[nH]c1 (stereo not drawn) [Example 73, 5-(3-{1-[3-methoxy-4-(1H-pyrazol-4-yl)benzoyl]pyrrolidin-2-yl}phenyl)-1-methyl-1H-pyrazole] | 1530
